The subject of series [1] is primary cultures of rat hippocampus. The series can be described thus: Neurotoxicity due to deprivation of trophic factors (serum deprivation), MTT. The class given is cell-based. Particulars: serum-free medium 48 hours. As for the experimental part:
(§1) The capacity to prevent neurotoxicity induced by hypoxia/hypoglycaemia in primary cultures of rat hippocampus (E18) was determined. […] After centrifuging at 700 g, the pellet was mechanically redispersed. The density of the cellular suspension was measured and aliquots were taken to culture on Petri dishes, previously coated with poly-lysine, using the same medium. […] Before the hypoxia, the compounds to be studied were added at variable times and concentrations.
In this case, an Eagle medium (DMEM) modified with 10% of calf serum was initially used and, after 10 days, the cultures were transferred to the DMEM culture deprived of calf serum.

Series [2] has the same test system. As to the kind of experiment: Neurotoxicity induced by hypoxia/hypoglycaemia (oxygen-glucose deprivation), MTT. The format is cell-based. As to conditions: glucose-free medium, 2 hours 95% N2/5% CO2, MTT. The method, then:
as §1

Series [3] concerns cerebral infarction after intraluminal occlusion of the middle cerebral artery (MCA) in rats. As to the kind of experiment: Focal ischemic model in rats, occlusion of the middle cerebral artery. The format is in vivo. Particulars: rat, 40 μg/kg intravenously, 24 hours after ischemic damage.
Experimental: The rats were anaesthetised with halotan, maintaining their temperature at 37.5° C. using an electric blanket connected to a rectal probe and cannulating the left femoral artery to monitor blood pressure. The right carotid artery was exposed, occluding the extra-cranial branches, and a blunt nylon filament was introduced through the external carotid until reaching the level when the middle cerebral artery (MCA) branches.
The selected compounds were administered intravenously. 24 Hours after the ischemic damage, the rats were anaesthetised with ether, they were perfused with saline solution and were then decapitated, extracting the brains that were cut into 1.5 mm coronal slices. The slices were then incubated in 4% triphenyltetrazolium chloride (TTC), which reacts with the intact mitochondrial enzymes producing a red colour which contrasts with the paleness of the infracted area, permitting it to be viewed, subsequently maintaining it in 10% formalin. The volume of cerebral infarction (mm^3) was calculated by measuring, in an image analyser, the affected area in the areas of cerebral cortex irrigated by the MCA and in the striatum and multiplying the average value obtained in each slice by the thickness thereof.

Counter-ions that a name gives are not always drawn. Marks after values point to notes of the source that are not given here.

The term melting point denotes the temperature, or range, at which the solid turns liquid.

For `O=C1C2CCCN2C(=O)N1CCCCNCCOc1ccccc1Br` (stereo not shown) (as salt: salt) [o, 2-[4-[2-(o-Bromophenoxy)ethylamino]butyl]-1,3-dioxoperhydropyrrolo[1,2-c]imidazole], the melting point was 98 to 99 °C. Compound `CCOc1ccccc1OCCNCCCCN1C(=O)CSC1=O` (as salt: salt) [ff, 3-[4-[2-(o-Ethoxyphenoxy)ethylamino]butyl]-2,4-dioxothiazolidine] registered a melting point of 70 to 74 °C. The same measure, in the same setting: as for `O=C1C2CCCCN2C(=O)N1CCCCNCc1ccc2ccccc2n1` (stereo not shown) (as salt: salt) [kk, 2-[4-[(2-Quinolyl)methylamino]butyl]-1,3-dioxoperhydroimidazo[1,5-a]pyridine], the figure is 206 to 208 °C. As to (±)-BAYx3702, the “Protection (%) Serum Deprivation” value in series [1] came out at 25.9 ± 2.5%. With `O=C1C2CCCCN2C(=O)N1CCCCCCNCc1ccc2ccccc2n1` (stereo not shown) (as salt: salt) [ll, 2-[6-[(2-Quinolyl)methylamino]hexyl]-1,3-dioxoperhydroimidazo[1,5-a]pyridine], the melting point lay within 176 to 188 °C. Consider `O=C1c2ccccc2S(=O)(=O)N1CCCCNC[C@H]1CCc2ccccc2O1` [(−)-BAYx3702], for which the “Protection (%) Serum Deprivation” value in series [1] stood at 31.0 ± 2.9%. Also, the “Protection (%) Oxygen-glucose deprivation” value in series [2] came to 77.5 ± 8.6%. For the same compound, in series [3], the “Infarcted Volumen Cortical” value is 271.2 ± 54.7* mm^3, the “Infarcted Volumen Subcortical” value is 105.5 ± 9.3 mm^3 and the “Infarcted Volumen Total” value is reported as 376.7 ± 57.8* mm^3.

`CCOc1ccccc1OCCNCCCCCCCCN1C(=O)CSC1=O` (as salt: salt) [hh, 3-[8-[2-(o-Ethoxyphenoxy)ethylamino]octyl]-2,4-dioxothiazolidine] came in with a melting point of 105 to 108 °C.

In turn, `O=C1C2CCCN2C(=O)N1CCCCNCc1ccc2ccccc2n1` (stereo not shown) displayed a melting point of 125 to 126 °C. For `CCc1ccccc1OCCNCCCCN1C(=O)C2CCCN2C1=O` (stereo not shown) (as salt: salt), the melting point is 115 to 118 °C.

Turning to `CCCN(CCC)C1CCc2cccc(O)c2C1` (stereo not shown) [Compound 8-OH-DPAT, 8-OH-DPAT], in series [1], the “Protection (%) Serum Deprivation” value is listed as 44.0 ± 1.4%. The “Protection (%) Oxygen-glucose deprivation” value in series [2] is 54.0 ± 3.5%. `O=C1C2CCCN2C(=O)N1CCCCNCCOc1cccc(Br)c1` (stereo not shown) (as salt: salt) returned a melting point of 140 to 143 °C.

The record behind these values is US20080200470A1, “Diaza- or Thiazadione Derivatives With Neuroprotective Activity” (Schwartz Pharma S.L, priority 2005, published 2008).
